Converted amounts (≈) assume the structure as drawn.
How the values were obtained:
[1] = Half life in human liver S9 fraction at 1 uM in presence of NADPH; assay type: ADME, subcellular
[2] = Aqueous solubility of the compound in phosphate-buffered saline at pH 7.2 after 1 to 24 hrs; assay type: physicochemical
[3] = target: T1, 17-beta-hydroxysteroid dehydrogenase type 2 (Homo sapiens, UniProt P37059); test: Inhibition of human placental microsomal fraction 17beta-HSD2 using [3H]-E2 as substrate in presence of NAD+ by radio-HPLC analysis; assay type: subcellular, Placenta
T1 sequence (P37059 whole entry): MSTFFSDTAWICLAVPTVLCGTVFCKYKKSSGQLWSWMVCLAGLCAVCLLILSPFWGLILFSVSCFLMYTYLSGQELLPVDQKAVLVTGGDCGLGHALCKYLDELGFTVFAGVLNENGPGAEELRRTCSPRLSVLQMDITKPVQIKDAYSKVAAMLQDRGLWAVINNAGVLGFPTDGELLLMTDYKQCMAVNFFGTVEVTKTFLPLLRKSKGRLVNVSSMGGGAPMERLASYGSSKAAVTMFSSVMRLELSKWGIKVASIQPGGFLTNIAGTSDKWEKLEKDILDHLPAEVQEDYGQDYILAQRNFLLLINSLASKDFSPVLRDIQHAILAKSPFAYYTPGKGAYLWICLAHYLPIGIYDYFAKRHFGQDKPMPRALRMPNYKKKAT

[4] = target: T2, 17-beta-hydroxysteroid dehydrogenase type 1 (Homo sapiens, UniProt P14061); test: Inhibition of human placental cytosolic fraction 17beta-HSD1 using [3H]-E1 as substrate in presence of […] by radio-HPLC analysis
T2 sequence (P14061 whole entry): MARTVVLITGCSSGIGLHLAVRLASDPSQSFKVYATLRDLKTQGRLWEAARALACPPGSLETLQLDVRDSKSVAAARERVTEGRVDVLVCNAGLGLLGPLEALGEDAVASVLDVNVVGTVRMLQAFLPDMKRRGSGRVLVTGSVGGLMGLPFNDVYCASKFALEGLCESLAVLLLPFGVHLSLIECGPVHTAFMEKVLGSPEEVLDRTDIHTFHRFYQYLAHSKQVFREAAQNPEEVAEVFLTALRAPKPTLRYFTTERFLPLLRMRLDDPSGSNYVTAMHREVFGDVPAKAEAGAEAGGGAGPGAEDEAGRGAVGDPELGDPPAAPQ

[5] = target: T3, Estradiol 17-beta-dehydrogenase 2 (Mus musculus) (UniProt P51658); test: Inhibition of mouse liver homogenate 17beta-HSD2 at 1uM using [3H]-E2 as substrate in presence of NAD+ by radio-HPLC analysis relative to control; assay type: tissue-based
T3 sequence (whole entry): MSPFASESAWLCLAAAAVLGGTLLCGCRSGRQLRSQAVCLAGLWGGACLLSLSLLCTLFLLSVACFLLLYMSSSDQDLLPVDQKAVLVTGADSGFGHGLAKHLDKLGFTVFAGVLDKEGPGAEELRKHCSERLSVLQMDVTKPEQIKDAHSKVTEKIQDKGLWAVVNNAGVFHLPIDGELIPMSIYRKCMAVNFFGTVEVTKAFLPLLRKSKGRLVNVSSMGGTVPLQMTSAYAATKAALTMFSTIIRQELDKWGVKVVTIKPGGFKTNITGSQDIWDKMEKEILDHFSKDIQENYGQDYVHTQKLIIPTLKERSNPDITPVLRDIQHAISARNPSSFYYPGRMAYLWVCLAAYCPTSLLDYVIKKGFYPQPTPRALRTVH

HEK293 = test: Cytotoxicity against human HEK293 cells assessed as cell viability at 6.3 uM after 66 hrs by MTT assay; assay type: cell-based; settings: hek293, 66 h
[6] = Selectivity index, ratio of cytotoxicity against HEK293 cells to IC50 for human placental cytosolic fraction 17beta-HSD1
[7] = target: T4, Estradiol 17-beta-dehydrogenase 2 (Mus musculus, UniProt P51658); test: Inhibition of mouse liver homogenate 17beta-HSD2 using [3H]-E2 as substrate in presence of NAD+ by radio-HPLC analysis; assay type: tissue-based
T4 sequence (P51658 whole entry): T3 sequence (whole entry)

[8] = Selectivity index, ratio of IC50 for mouse liver homogenate 17beta-HSD2 to IC50 for human placental cytosolic fraction 17beta-HSD1
[9] = target: T5, Steryl-sulfatase (Homo sapiens) (UniProt P08842); test: Inhibition of human steroid sulfatase expressed in T47D cells using [3H]-E1S as substrate by radio-HPLC analysis relative to control; assay type: cell-based; settings: concentration not given here
T5 sequence (whole entry): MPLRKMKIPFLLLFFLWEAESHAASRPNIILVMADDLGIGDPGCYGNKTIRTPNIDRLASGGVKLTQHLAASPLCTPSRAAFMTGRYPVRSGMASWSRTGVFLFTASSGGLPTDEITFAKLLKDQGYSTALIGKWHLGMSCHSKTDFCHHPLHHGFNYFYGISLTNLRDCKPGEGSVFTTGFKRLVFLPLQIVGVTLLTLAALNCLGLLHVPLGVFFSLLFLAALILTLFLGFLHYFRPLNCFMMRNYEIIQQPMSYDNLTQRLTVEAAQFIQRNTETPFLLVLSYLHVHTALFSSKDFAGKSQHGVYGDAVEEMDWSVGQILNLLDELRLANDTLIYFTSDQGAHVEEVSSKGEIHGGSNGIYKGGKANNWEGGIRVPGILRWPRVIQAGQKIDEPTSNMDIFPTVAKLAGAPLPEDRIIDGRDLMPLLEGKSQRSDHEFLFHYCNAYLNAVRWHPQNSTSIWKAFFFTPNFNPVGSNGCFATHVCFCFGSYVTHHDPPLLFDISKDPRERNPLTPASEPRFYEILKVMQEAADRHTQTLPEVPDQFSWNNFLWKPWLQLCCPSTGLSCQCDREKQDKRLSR

[10] = target: T6, 17-beta-hydroxysteroid dehydrogenase type 2 (Homo sapiens) (UniProt P37059); test: Inhibition of human placental microsomal fraction 17beta-HSD2 at 10 nM using [3H]-E2 as substrate in presence of NAD+ by radio-HPLC analysis relative to control; assay type: subcellular; settings: Placenta
T6 sequence (whole entry): T1 sequence (P37059 whole entry)

[11] = target: T7, 17-beta-hydroxysteroid dehydrogenase type 1 (Homo sapiens) (UniProt P14061); settings: 10 nM
T7 sequence (whole entry): T2 sequence (P14061 whole entry)
Description: Inhibition of human placental cytosolic fraction 17beta-HSD1 at 10 nM using [3H]-E1 as substrate in presence of NAD+ by radio-HPLC analysis relative to control

SMILES | half-life at 1 µM [1] | solubility [2] | IC50 [3] | IC50 [4] | also measured
Cc1cc(-c2ccc(C(=O)c3cc(F)c(F)c(O)c3C)s2)cc(C)c1O | 28 min | 15 to 25 µM (≈ 5.62 to 9.36 µg/mL) |  |  | 
Cc1cc(-c2ccc(C(=O)c3c(F)ccc(O)c3F)s2)cc(C)c1O | < 5 min | 15 to 25 µM (≈ 5.41 to 9.01 µg/mL) | 7.3 nM |  | 
O=C(c1ccc(-c2cc(Cl)c(O)c(Cl)c2)s1)c1c(Cl)ccc(O)c1F |  |  | 18 nM | 3 nM | 
COc1c(Cl)cc(-c2ccc(C(=O)c3c(Cl)ccc(O)c3F)s2)cc1Cl | < 5 min |  | 15 nM | 0.5 nM | 
CS(=O)(=O)c1cccc(-c2ccc(C(=O)c3cc(F)c(F)c(O)c3F)s2)c1 |  | > 200 µM | 18 nM | 8 nM | inhibition [5]: 60%
Cc1cc(-c2ccc(C(=O)c3cc(F)cc(O)c3C)s2)cc(C)c1O | 22 min | 100 to 200 µM (≈ 35.6 to 71.3 µg/mL) | 76 nM | 6 nM | Activity (HEK293): Non-Toxic; Selectivity Index [6]: 1050
COc1c(Cl)cc(-c2ccc(C(=O)c3c(F)ccc(O)c3Cl)s2)cc1Cl |  |  | 9.5 nM | 15 nM | 
NS(=O)(=O)Oc1ccc(-c2ccc(C(=O)c3cc(F)c(F)c(O)c3F)s2)cc1 | 55 min | > 200 µM | 6 nM | 35 nM | IC50 [7]: 80 nM; Ratio IC50 [8]: < 10; inhibition [9]: 60%
O=C(c1ccc(-c2cncc(F)c2)s1)c1cc(F)c(F)c(O)c1F |  | > 200 µM |  |  | inhibition [5]: 24%
NS(=O)(=O)c1cccc(-c2ccc(C(=O)c3c(F)ccc(O)c3F)s2)c1 |  |  |  |  | inhibition [10]: 26%; inhibition [11]: 34%
NS(=O)(=O)c1ccc(-c2ccc(C(=O)c3c(F)ccc(O)c3F)s2)cc1 |  |  |  |  | inhibition [10]: 54%; inhibition [11]: 18%
O=C(c1ccc(-c2cccc(NS(=O)(=O)c3ccccc3OC(F)(F)F)c2)s1)c1cc(F)c(F)c(O)c1F |  | 25 to 50 µM (≈ 14.3 to 28.7 µg/mL) |  |  | 
COc1c(Cl)cc(-c2ccc(C(=O)c3c(F)ccc(O)c3F)s2)cc1Cl | < 5 min | < 5 µM |  |  | 
CS(=O)(=O)n1cc(-c2ccc(C(=O)c3c(F)ccc(O)c3F)s2)cn1 |  |  | 75 nM | 80 nM | 
Cc1cc(-c2ccc(C(=O)c3cccc(O)c3C)s2)cc(C)c1O | 25 min |  |  |  | 

From ChEMBL document CHEMBL4364247, “Development of potential preclinical candidates with promising in vitro ADME profile for the inhibition of type 1 and type 2 17β-Hydroxysteroid dehydrogenases: Design, synthesis, and biological evaluation” (Eur J Med Chem, 2019)
